Laboratory results published in patent US6410328B1, “Sensitizing cells to compounds using lipid-mediated gene and compound delivery” (Protiva Biotherapeutics Inc., priority 1998, dated 2002).

Legend:
[1] = system: B16 murine melanoma cells stably transfected with HSV-TK; experiment: Efficacy of liposomal ganciclovir in the B16TK tumor model (Example 11); format: in vivo, mouse; settings: day 18; 25 mg/kg ganciclovir every other day from day five, six injections
Description: FIG. 13 illustrates efficacy of liposomal ganciclovir in the B16TK tumor model. Female C57BL/6 mice were seeded subcutaneously in the hind flank with 150,000 B16 murine melanoma cells stably transfected with HSV-TK. Five days later, tumor measurement began. Starting on day five, mice were treated with liposomal or free GCV (25 mg/kg ganciclovir) or HBS (Hepes Buffered Saline) every other day for a total of six injections. Measurements at day 18 indicate that tumors in the control mice are 5-fold larger than those of the treated groups. Tumor volume was determined by measuring tumor in three dimensions with calipers.
Groups of 4 or 5 female C57BL/6 mice were injected intradermally with B16 cells stably transfected with HSV-TK. Once tumors were measurable (day 5), the mice were injected intravenously with liposomal GCV (25 mg/kg GCV). Injections were continued every other day for 6 injections. Tumor measurements were typically taken every other day.

in vivo = settings: female, C57BL/6, mouse, iv, 25 mg/kg
Description: Groups of four female C57BL/6 mice per time point were injected subcutaneously with 150,000 B16 tumor cells. The tumors were grown for 14 days at which time a single iv dose of free GCV or liposomal GCV was given via the lateral tail vein. This dose, given in a total of 200 μL, contained approximately 5.6 mg (10 μmoles) lipid and 0.5 mg (1.96 μmoles) GCV resulting in lipid and GCV doses of 300 mg/kg and 25 mg/kg, respectively. Circulating levels of lipid and GCV were determined at 15 min, 1, 8, 24 and 48 hrs for the liposomal GCV groups. Levels of GCV were determined at 15 min and 1 hr for the free GCV groups. At each time point, animals were anesthetized with ketamine/xylazine and blood was collected via cardiac puncture. Blood was put into EDTA coated microtainers and spun at 500 g for 10 min in order to pellet blood cells and obtain plasma. Lipid and GCV levels in the plasma were determined. Lipid and GCV were measured by counting ^14C-CHE and ^3H-GCV. One hundred or 200 μL aliquots of plasma were measured on a Beckman LS3801 scintillation counter. […]
Tumor bearing mice were treated intravenously with 25 mg/kg of free or liposomal GCV. Lipid and GCV were quantified using ^14C-CHE and ^3H-GCV labels. […] Free ganciclovir is rapidly cleared from the tumor, with only 1.1+/−0.1 % of the total injected dose per gram of tumor detected at 1 hr. […]

[2] = Organ biodistribution of free and liposomal GCV in B16 tumored mice (Example 10); format: in vivo, mouse
Description: Groups of four female C57BL/6 mice per time point were injected subcutaneously with 150,000 B16 tumor cells. The tumors were grown for 14 days at which time a single iv dose of free GCV or liposomal GCV was given via the lateral tail vein. This dose, given in a total of 200 μL, contained approximately 5.6 mg (10 μmoles) lipid and 0.5 mg (1.96 μmoles) GCV resulting in lipid and GCV doses of 300 mg/kg and 25 mg/kg, respectively. Circulating levels of lipid and GCV were determined at 15 min, 1, 8, 24 and 48 hrs for the liposomal GCV groups. Levels of GCV were determined at 15 min and 1 hr for the free GCV groups. At each time point, animals were anesthetized with ketamine/xylazine and blood was collected via cardiac puncture. Blood was put into EDTA coated microtainers and spun at 500 g for 10 min in order to pellet blood cells and obtain plasma. Lipid and GCV levels in the plasma were determined. Lipid and GCV were measured by counting ^14C-CHE and ^3H-GCV. One hundred or 200 μL aliquots of plasma were measured on a Beckman LS3801 scintillation counter.
Biodistribution data was collected from those mice that were in the pharmacokinetic studies. Following heart puncture, mice were terminated by cervical dislocation. Tissues were harvested from each animal and weighed. Saline was added to each organ prior to homogenization by either a Polytron homogenizer (livers) or a Fast Prep® machine. Tissues were solubilized in Solvable for 3 to 16 hr at 50° C. The samples were then cooled to room temperature before defoaming and decolourizing with EDTA and hydrogen peroxide respectively. Picofluorscintillation fluid was added to the samples prior to counting on the scintillation counter.

[3] = Plasma clearance and in vivo release of free and liposomal GCV in B16 tumored mice (Example 9); design: species or system mouse; settings: 1 hr after single iv dose, 25 mg/kg GCV
Description: Large unilamellar vesicles were prepared according to the method of Hope, et al., Biochem. Biophys. Acta. 812:55-65 (1985). 55 mole % sphingomyelin and 45 mole % of cholesterol were dissolved in chloroform with a drop of methanol and approximately 0.035 μCi of ^14C-CHE. Lipids were dried down under a stream of nitrogen gas and the resulting lipid film was then placed under high vacuum for at least 3 hrs. A solution of ganciclovir containing ^3H-GCV was made up in 30% ethanol, 70% HBS (20 mM Hepes, 145 mM NaCl pH 7.45) to 50 or 100 mg/mL depending on the sample size. The lipid to GCV weight ratio was initially 1 to 1. The GCV solution was added to the lipid film. […] The lipid concentration was determined by scintillation counting of ^14C-CHE label. The GCV concentration was determined by counting ^3H-GCV and a Bligh Dyer assay.
Groups of four female C57BL/6 mice per time point were injected subcutaneously with 150,000 B16 tumor cells. […] Circulating levels of lipid and GCV were determined at 15 min, 1, 8, 24 and 48 hrs for the liposomal GCV groups. Levels of GCV were determined at 15 min and 1 hr for the free GCV groups. […] Lipid and GCV levels in the plasma were determined. Lipid and GCV were measured by counting ^14C-CHE and ^3H-GCV. One hundred or 200 μL aliquots of plasma were measured on a Beckman LS3801 scintillation counter.

Nc1nc(O)c2ncn(COC(CO)CO)c2n1 [free GCV, ganciclovir]
tumor size in control HBS-treated mice relative to treated groups [1]: 5 fold
tissue uptake at 1 h (in vivo): 1.1 %ID/g
GCV content of organs assayed (liver, lungs, spleen, kidneys) ([2]; 15 min and 1 hr, except kidneys at 15 min): essentially absent
GCV found in the kidneys ([2]; 15 minute time point): 3.5+/−1.8 % of the total injected dose
GCV found in the liver ([2]; 15 minutes after administration): 3.1+/−0.1 % of the initial injected dose
GCV in the spleen ([2]; 1 hr (peak for liposomal GCV)): 0.04+/−0.02 % of the total injected dose
injected dose remaining in circulation [3]: 0.4 % of the injected dose
